The subject of this experiment is IRE1-XBP1s (XBP1-RLuc splicing reporter in HEK293 T-REx cells). As to the kind of experiment: IRE1-XBP1s activation assay (XBP1-RLuc splicing reporter, HEK293 T-REx cells, luminescence relative to thapsigargin). In kind it is cell-based. The following applies: 18 h, read-out: Activity (IRE1-XBP1s activation, luminescence as % signal relative to thapsigargin, % Tg). The method, then:
IRE1-XBP1s activation Assay: HEK293 T-REx cells stably expressing the XBP1-RLuc splicing reporter were treated with an IRE1-XBP1s activator provided herein (10 μM) in the presence or absence of the IRE1 active site inhibitor 4μ8C (32 μM) for 18 h. Luminescence was shown as the percentage signal relative to thapsigargin (Tg) (500 nM, 18 h).

Where [1] appears, read: compound 10 μM, HEK293 T-REx XBP1-RLuc reporter cells, relative to thapsigargin (Tg) 500 nM.

Like-named read-outs stand apart in the source and are kept apart here.

Regarding `Cc1ccc(OCCN(C)C(=O)Cn2cc(NC(=O)CCOc3cccc(C(C)C)n3)cn2)cc1` [Compound 108], the activation at 10 µM under setting [1] was under 30%.

Turning to `COC(=O)Nc1cccc(OCCC(=O)Nc2cnn(CC(=O)N(C)CCOc3ccc(C)cc3)c2)n1` [Compound 261, methyl (6-(3-((1-(2-(methyl(2-(p-tolyloxy)ethyl)amino)-2-oxoethyl)-1H-pyrazol-4-yl)amino)-3-oxopropoxy)pyridin-2-yl)carbamate], the activation at 10 µM under setting [1] fell in the range of 30 to 50%.

As to `COc1cc(F)ccc1OCCN(C)C(=O)Cn1cc(NC(=O)CCNc2ncccn2)cn1` [Compound 282, N-(1-(2-((2-(4-fluoro-2-methoxyphenoxy)ethyl)(methyl)amino)-2-oxoethyl)-1H-pyrazol-4-yl)-3-(pyrimidin-2-ylamino)propanamide], under setting [1], the activation at 10 µM was under 30%.

For `COc1ccc(NCCC(=O)Nc2cnn(CC(=O)N(C)CCOc3ccc(C)cc3)c2)c(C)n1` [Compound 197], the activation at 10 µM under setting [1] was in the range of 30 to 50%.

On to `Cc1ccc(OCCN(C)C(=O)Cn2cc(NC(=O)CCCc3ccccc3)cn2)cc1` [Compound 92, N-(1-(2-(methyl(2-(p-tolyloxy)ethyl)amino)-2-oxoethyl)-1H-pyrazol-4-yl)-4-phenylbutanamide], for which the activation at 10 µM under setting [1] was under 30%.

Consider `Cc1ccc(OCC(C)(C)N(C)C(=O)Cn2cc(NC(=O)CCOc3ccccc3F)cn2)cc1` [Compound 63], for which the activation at 10 µM was over 50%.

`Cc1ccc(OCCN(C)C(=O)Cn2cc(NC(=O)CCOc3ccnc(Cl)c3)cn2)cc1` [Compound 8]: the activation at 10 µM under setting [1] is over 50%.

As to `Cc1ccc(OCCN(C)C(=O)Cn2cc(NC(=O)CCNc3cccc(F)n3)cn2)cc1` [Compound 144], the activation at 10 µM under setting [1] was over 50%.

For the compound `Cc1ccc(OCCC(=O)Nc2cnn(CC(=O)N(C)CCOc3cc(F)c(C)c(F)c3)c2)c(F)c1` [Compound 85], the activation at 10 µM under setting [1] is over 50%.

For the compound `COc1cc(C)ccc1OCCN(C)C(=O)Cn1cc(NC(=O)CCNc2ncccn2)cn1` [Compound 284], the activation at 10 µM under setting [1] is under 30%.

For the compound `Cc1ccc(OCCN(C)C(=O)Cn2cc(NC(=O)CCNc3cncc(N)c3)cn2)cc1` [Compound 119], under setting [1], the activation at 10 µM is under 30%.

As to `Cc1ccc(OCCN(C)C(=O)Cn2cc(NC(=O)CCNc3ncc(C(F)(F)F)cc3Cl)cn2)cc1` [Compound 130], the activation at 10 µM under setting [1] is under 30%.

In the case of `CN(CCOc1ccncc1)C(=O)Cn1cc(NC(=O)CCOc2ccccc2F)cn1` [Compound 55], under setting [1], the activation at 10 µM was under 30%.

Turning to `Cc1ccc(OCCN(C)C(=O)Cn2cc(NC(=O)CCNc3ncncc3C(C)C)cn2)cc1` [Compound 161], the activation at 10 µM under setting [1] was over 50%.

Take `Cc1ccc(OCCN(C)C(=O)Cn2cc(NC(=O)CCNc3ccnc(N)c3)cn2)cc1` [Compound 153]: the activation at 10 µM under setting [1] is under 30%.

For the compound `Cc1ccc(OCCN(C)C(=O)Cn2cc(NC(=O)CCNc3ncc(F)cn3)cn2)cc1` [Compound 193], the activation at 10 µM under setting [1] was 30 to 50%.

Regarding `Cc1ccc(OCCN(C)C(=O)Cn2cc(NC(=O)CCNc3cc(C)ncc3C)cn2)cc1` [Compound 173], the activation at 10 µM under setting [1] is under 30%.

With `Cc1ccc(OCCN(C)C(=O)Cn2cc(NC(=O)CCNc3cncc(Cl)n3)cn2)cc1` [Compound 151], the activation at 10 µM under setting [1] fell in the range of 30 to 50%.

On to `Cc1ccc(OCCN(C)C(=O)Cn2cc(NC(=O)CCOc3c(C(C)C)ccnc3C)cn2)cc1` [Compound 15], for which the activation at 10 µM under setting [1] is over 50%.

Take `Cc1ccc(OCCN(C)C(=O)Cn2cc(NC(=O)CCNc3cnc(F)cc3C)cn2)cc1` [Compound 179]: the activation at 10 µM under setting [1] was over 50%.

With `C#CCCC1(CCC(=O)Nc2cncc(OCCC(=O)Nc3cnn(CC(=O)N(C)CCOc4ccc(C)cc4)c3)c2)N=N1` [Compound 236], the activation at 10 µM under setting [1] is under 30%.

Consider `COc1ccc(OCCN(C)C(=O)Cn2cc(NC(=O)CCNc3ccnc4ncnn34)cn2)cc1` [Compound 124], for which, under setting [1], the activation at 10 µM is 30 to 50%.

For the compound `CCc1nccnc1NCCC(=O)Nc1cnn(CC(=O)N(C)CCOc2ccc(C)cc2)c1` [Compound 142], the activation at 10 µM under setting [1] lay within 30 to 50%.

For the compound `Cc1ccc(OCCN(C)C(=O)Cn2cc(NC(=O)CCNc3ccc4c(n3)OCO4)cn2)cc1` [Compound 286, 3-([1,3]dioxolo[4,5-b]pyridin-5-ylamino)-N-(1-(2-(methyl (2-(p-tolyloxy)ethyl)amino)-2-oxoethyl)-1H-pyrazol-4-yl)propanamide], the activation at 10 µM under setting [1] is over 50%.

Regarding `Cc1ccc(OCCN(C)C(=O)Cn2cc(NC(=O)CCOc3cnccc3C(F)(F)F)cn2)cc1` [Compound 12], under setting [1], the activation at 10 µM was under 30%.

`Cc1ccc(OCCN(C)C(=O)Cn2cc(NC(=O)CCNc3ccnc4ncnn34)cn2)cc1` [Compound 200]: under setting [1], the activation at 10 µM was under 30%.

Turning to `Cc1ccc(OC[C@@H](C)N(C)C(=O)Cn2cc(NC(=O)CCNc3nccc(F)n3)cn2)cc1` [Compound 270], the activation at 10 µM under setting [1] lay in the range of 30 to 50%.

As to `Cc1ccc(OCCN(C)C(=O)Cn2cc(NC(=O)CCOc3cccnc3NS(C)(=O)=O)cn2)cc1` [Compound 273, N-(1-(2-(methyl(2-(p-tolyloxy)ethyl)amino)-2-oxoethyl)-1H-pyrazol-4-yl)-3-((2-(methylsulfonamido)pyridin-3-yl)oxy)propanamide], under setting [1], the activation at 10 µM is under 30%.

On to `Cc1ccc(OCCN(C)C(=O)Cn2cc(NC(=O)C(C)COc3ccccc3)cn2)cc1` (stereo not drawn) [Compound 46, 2-methyl-N-(1-(2-(methyl(2-(p-tolyloxy)ethyl)amino)-2-oxoethyl)-1H-pyrazol-4-yl)-3-phenoxypropanamide], for which the activation at 10 µM under setting [1] is over 50%.

For `Cc1ccc(OCCN(C)C(=O)Cn2cc(NC(=O)CCOc3cccnc3C(F)(F)F)cn2)cc1` [Compound 16], the activation at 10 µM under setting [1] lay in the range of 30 to 50%.

With `CN(CCOc1cc(C(F)F)on1)C(=O)Cn1cc(NC(=O)CCNc2nccc(F)n2)cn1` [Compound 271], under setting [1], the activation at 10 µM was under 30%.

`CCOc1cc(NCCC(=O)Nc2cnn(CC(=O)N(C)CCOc3ccc(C)cc3)c2)ccn1` [Compound 191]: the activation at 10 µM under setting [1] is under 30%.

`Cc1ccc(OCCN(C)C(=O)Cn2cc(NC(=O)CCOc3ncc(F)cc3C)cn2)cc1` [Compound 68]: the activation at 10 µM under setting [1] is under 30%.

With `Cc1ccc2sc(OCCN(C)C(=O)Cn3cc(NC(=O)CCNc4ccc(F)nc4C)cn3)nc2c1` [Compound 246], under setting [1], the activation at 10 µM was under 30%.

Consider `Cc1ccc(OCCN(C)C(=O)Cn2cc(NC(=O)CCNc3ccccc3)cn2)cc1` [Compound 27], for which, under setting [1], the activation at 10 µM was over 50%.

Take `Cc1ccc(OCCN(C)C(=O)Cn2cc(NC(=O)CCNc3cc(C)nc(C)c3)cn2)cc1` [Compound 123, 3-((2,6-dimethylpyridin-4-yl)amino)-N-(1-(2-(methyl(2-(p-tolyloxy)ethyl)amino)-2-oxoethyl)-1H-pyrazol-4-yl)propanamide]: the activation at 10 µM under setting [1] was in the range of 30 to 50%.

On to `Cc1ccc(OCCN(C)C(=O)Cn2cc(NC(=O)CCNc3cc(C)cnc3F)cn2)cc1` [Compound 194], for which the activation at 10 µM under setting [1] is under 30%.

As to `Cc1ccc(OC[C@@H](C)N(C)C(=O)Cn2cc(NC(=O)CCNc3ccnc(F)n3)cn2)cc1` [Compound 268], the activation at 10 µM under setting [1] was over 50%.

For the compound `Cc1ccc(OCCN(C)C(=O)Cn2cc(NC(=O)CCNc3cc(C(F)(F)F)ccn3)cn2)cc1` [Compound 133], under setting [1], the activation at 10 µM was over 50%.

Take `COc1ncc(Cl)cc1NCCC(=O)Nc1cnn(CC(=O)N(C)CCOc2ccc(C)cc2)c1` [Compound 183]: the activation at 10 µM under setting [1] is under 30%.

For the compound `Cc1ccc(OCCN(C)C(=O)Cn2cc(NC(=O)COc3c(F)cncc3C(C)C)cn2)cc1` [Compound 274, 2-(4-(2-((3-fluoro-5-isopropylpyridin-4-yl)oxy)acetamido)-1H-pyrazol-1-yl)-N-methyl-N-(2-(p-tolyloxy)ethyl)acetamide], under setting [1], the activation at 10 µM is under 30%.

As for `Cc1ccc(OCCN(C)C(=O)Cn2cc(NC(=O)CCNc3c(F)cncc3C=O)cn2)cc1` [Compound 230, 3-((3-fluoro-5-formylpyridin-4-yl)amino)-N-(1-(2-(methyl(2-(p-tolyloxy)ethyl)amino)-2-oxoethyl)-1H-pyrazol-4-yl)propanamide], under setting [1], the activation at 10 µM is over 50%.

For `Cc1ccc(OCCN(C)C(=O)Cn2cc(NC(=O)CCNc3cnc(F)c(C)c3)cn2)cc1` [Compound 121], the activation at 10 µM under setting [1] is over 50%.

Turning to `COc1ccc(OCCN(C)C(=O)Cn2cc(NC(=O)CCNc3ccnc(C)c3)cn2)cc1` [Compound 166], the activation at 10 µM under setting [1] is under 30%.

For `CN(CCOc1ccc(C(F)(F)F)cc1)C(=O)Cn1cc(NC(=O)CCOc2ccccc2F)cn1` [Compound 40], the activation at 10 µM under setting [1] was over 50%.

With `Cc1ccc(OC[C@H](C)N(C)C(=O)Cn2cc(NC(=O)CCNc3ccnc(F)n3)cn2)cc1` [Compound 264], the activation at 10 µM under setting [1] was over 50%.

For `Cc1ccc(OCCN(C)C(=O)Cn2cc(NC(=O)CCOc3ccc(N)cn3)cn2)cc1` [Compound 205], under setting [1], the activation at 10 µM is over 50%.

`Cc1ccc(OCCN(C)C(=O)Cn2cc(NC(=O)CCNc3ccnc(F)n3)cn2)cc1` [Compound 136]: under setting [1], the activation at 10 µM was 30 to 50%.

As to `CCc1cc(F)ccc1OCCC(=O)Nc1cnn(CC(=O)N(C)CCOc2ccc(C)cc2)c1` [Compound 59], the activation at 10 µM under setting [1] was under 30%.

Take `Cc1ccc(OCCN(C)C(=O)Cn2cc(NC(=O)C(CNc3ccc(F)nc3C)c3ccccc3)cn2)cc1` (stereo not drawn) [Compound 167]: the activation at 10 µM under setting [1] is under 30%.

As for `Cc1ncc(OCCN(C)C(=O)Cn2cc(NC(=O)CCNc3ccc(F)nc3C)cn2)cn1` [Compound 241], under setting [1], the activation at 10 µM was under 30%.

With `Cc1ccc(OCCN(C)C(=O)Cn2cc(NC(=O)C(CNc3ccc(F)nc3C)C3CCCCC3)cn2)cc1` (stereo not drawn) [Compound 219], under setting [1], the activation at 10 µM lay within 30 to 50%.

On to `COc1ccc(OCCN(C)C(=O)Cn2cc(NC(=O)CCOc3ccccc3)cn2)cc1` [Compound 24], for which, under setting [1], the activation at 10 µM is under 30%.

Regarding `Cc1ccc(OCCN(C)C(=O)Cn2cc(NC(=O)CCNc3ncccc3F)cn2)cc1` [Compound 146], the activation at 10 µM under setting [1] fell in the range of 30 to 50%.
